Patent US4738977A, “2-pyridylacetic acid derivatives, pharmaceutical composition containing the same and their use in treating ulcers” (Suntory Limited, priority 1985, dated 1988)

Experiments:
[1] = system: gastric acid secretion; experiment: Action on Gastric Acid Secretion (Shay Rat, pylorus ligation); format: in vivo, Sprague-Dawley strain male rats; settings: intraduodenal immediately after pylorus ligation, 4 h gastric juice
Experimental: (§1) For the pharmocological examination of the compounds of the present invention, the following tests were carried out to confirm the effect of inhibiting gastric acid secretion and the protective effect of gastric mucosa. For the toxicity, the test compound was orally administered to six mice of one group to determine the toxicity (LD50) thereof.
1. Action on Gastric Acid Secretion (Shay Rat)
Sprague-Dawley strain male rats weighing 200-240 g were used after being starved for 24 hours (water was given ad libitum). Under ether anesthesia, the abdomen was cut and, after ligation of the pylorus part, then closed, and the rat was starved of both food and water. Four hours later the stomach was removed under ether anesthesia and the gastric juice was collected. The gastric juice collected was centrifuged at 3000 rpm for 10 minutes, the volume of the supernatant was measured, and the acidity was determined by titrating 1 ml of the gastric juice with 0.1 N sodium hydroxide solution to pH 7.0. Further, from the amount of gastric juice and the acidity, the acid output (μEg/4h) was calculated; the percentage of inhibition was determined from the following formula, and the percentage of inhibition versus dose (mg/kg) was then plotted on a semi-logarithmic graph to determine the ED50 value. Each test drug was suspended in physiological saline with a few drops of Tween 80 (available from Nakarai Chemicals Ltd.,) and administered into the duodenum at a proportion of 0.2 ml/100 g-body weight immediately after pylorus ligation. [formula]

[2] = Action on Hydrochloric Acid Plus Ethanol Induced Ulcer; format: in vivo, Sprague-Dawley strain male rats; settings: rat, oral 30 minutes before HCl-ethanol
Experimental: 2. Action on Hydrochloric Acid Plus Ethanol Induced Ulcer
Sprague-Dawley strain male rats weighing 200-240 g were used after starving for 24 hours. To each rat, a 60% ethanolic solution containing 150 mM of hydrochloric acid was administered orally at a volume of 0.5 ml/100 g-body weight, and the stomach was removed under ether anesthesia 1 hour later. Into the stomach, 10 ml of a 2% formalin solution was injected, and further the stomach was then immersed in a 2% formalin solution for 15 minutes to fix the inner and outer wall of the stomach. The stomach was cut open along the greater curvature, and the length of the damage generated at the glandular portion of the stomach was measured, and the sum of the lengths of the damages of gastric mucosa per one rat was defined as the lesion index (mm), which was compared with a control group to calculate the percentage of inhibition according to the formula shown below, and then the percentage of inhibition versus dose (mg/kg) was plotted on a semi-logarithmic graph to determine the ED50 value. Each test drug was suspended in physiological saline a few drops of Tween 80 and administered orally 30 minutes before administration of the hydrochloric acid ethanolic solution. [formula]

[3] = Toxicity (LD50) in mouse; settings: in vivo, oral, six mice of one group
Experimental: as §1

[4] = Anti-Aspirin Ulcer Action; format: in vivo, Sprague-Dawley-strain male rats; settings: rat, into the duodenum, aspirin 150 mg/kg oral, 5 hours
Experimental: 3. Anti-Aspirin Ulcer Action
Sprague-Dawley-strain male rats weighing about 220 g were starved for 24 hours, and with pylorus being ligated under ether anesthesia, the test drug was administered into the duodenum. After recovery from ether anesthesia, 150 mg/kg of aspirin (suspended in 1% CMC) was orally administered. Five hours later, the stomach was removed under ether anesthesia, 10 ml of 2% formalin solution was injected into the stomach, and the stomach was then immersed in a 2% formalin solution for about 15 minutes. The stomach was then cut open along the greater curvature and the length of the damage generated at the glandular portion of the stomach was measured under dissecting microscope (×10) and the sum of the lengths per one rat (mm) was defined as the lesion index. The ED50 value was calculated as described before.

[5] = Anti-Indomethacin Ulcer Action; format: in vivo, Sprague-Dawley-strain male rats; settings: rat, 30 minutes before indomethacin 30 mg/kg s.c., 5 hours
Experimental: 4. Anti-Indomethacin Ulcer Action
Sprague-Dawley-strain male rats weighing about 200-220 g were starved for 24 hours, and 30 mg/kg of indomethacin (suspended in 1% CMC) was administered subcutaneously. After five hours, the stomach was removed under ether anesthesia, and subsequently the same treatment as in the case of an aspirin ulcer was carried out and the sum of the length (mm) of the damage produced at the glandular portion of the stomach per one rat was defined as lesion index. The test drug was administered 30 minutes before administration of indomethacin. The ED50 value was calculated as described before.

[6] = Anti Stress Ulcer; format: in vivo, Sprague-Dawley-strain male rats; settings: rat, oral 30 minutes before water immersion stress at 23° C., 5 hours; read-out: Action on anti-stress ulcer (ED50)
Experimental: Sprague-Dawley-strain male rats weighing about 240-260 g were starved for 24 hours, and, 30 minutes after oral administration of the test drug, the rat was placed in a stress cage and stress was loaded by immersing the rat into a water tank maintained at 23° C. to the xiphisternum of the chest. Five hours later, the stomach was removed under ether anesthesia, the same treatment as in the case of aspirin ulcer was applied, and the sum of the lengths (mm) of the mucosa damage generated at the glandular portion of the stomach was defined as the lesion index. The ED50 value was calculated as described before.

[7] = Anti-Duodenal Ulcer Action; format: in vivo, Sprague-Dawley-strain male rats; settings: rat, indomethacin plus histamine 2HCl
Experimental: 6. Anti-Duodenal Ulcer Action
Sprague-Dawley-strain male rats weighing 200-220 g were starved for 24 hours, and indomethacin (suspended in saline with Tween 80) and histamine 2HCl (dissolved in 10% gelatin solution) were administered following the time schedule shown below. Then, under ether anesthesis, stomach and the duodenal part were removed and 2% formalin solution was injected thereinto. Further, they were immersed in 2% formalin solution for about 15 minutes, and then cut open along the greater curvature to the duodenal part, and the number and area (length in the case of linear ulcer) of the mucosa damages generated at the Corpus, Antrum and Duodenum respectively were measured under stereoscopic microscope (×10), and the sum of the area (mm^2) per one rat was defined as lesion index. The ED50 value was calculated as described before. [drawing 32]

[8] = Toxicity (LD50) in rat; settings: in vivo, oral

Compound | ED50 [1] [mg/kg] | ED50 [2] [mg/kg] | also measured
CCOC(=O)C(C(=S)NC)c1ccccn1 (stereo not drawn) [Example 1, ethyl 2-methylthiocarbamoyl-2-(2-pyridyl)acetate] | 2.4 |  | 
CNC(=S)C(C(=O)OC/C=C(\C)CCC=C(C)C)c1ccccn1 (stereo not drawn) [Example 12, Geranyl 2-methylthiocarbamoyl-2-(2-pyridyl)acetate] | 5 | 1.4 | LD50 [3]: > 1300 mg/kg; ED50 [4]: 0.8 mg/kg; ED50 [5]: 0.7 mg/kg; ED50 [6]: 5.3 mg/kg; ED50 [7]: 0.6 mg/kg
CCCNC(=S)C(C(=O)OCC)c1ccccn1 (stereo not drawn) [Example 19, Ethyl 2-propylthiocarbamoyl-2-(2-pyridyl)acetate] | 3.8 |  | 
C=CCNC(=S)C(C(=O)OCC)c1ccccn1 (stereo not drawn) [Example 3, Ethyl 2-allylthiocarbamoyl-2-(2-pyridyl)acetate] | 3.8 |  | 
CCOC(=O)C(C(=S)NCCCO)c1ccccn1 (stereo not drawn) [Example 20, Ethyl 2-(3-hydroxypropyl)thiocarbamoyl-2(2-pyridyl)acetate] |  | 2.3 | 
CCOC(=O)C(C(=S)Nc1ccccc1)c1ccccn1 (stereo not drawn) [Example 6, Ethyl 2-phenylthiocarbamoyl-2-(2-pyridyl)acetate] | 9.3 | 3.4 | LD50 [3]: > 1300 mg/kg
CCOC(=O)C(C(=S)NC1CCCCC1)c1ccccn1 (stereo not drawn) [Example 4, Ethyl 2-cyclohexylthiocarbamoyl-2-(2-pyridyl)acetate] | 15.5 |  | 
CNC(=S)C(C(=O)OC/C=C(\C)CC/C=C(\C)CCC=C(C)C)c1ccccn1 (stereo not drawn) [Example 15, Farnesyl 2-methylthiocarbamoyl-2-(2-pyridyl)acetate] | 5.6 | 0.3 | 
CNC(=S)C(C(=O)OCc1ccccc1)c1ccccn1 (stereo not drawn) [Example 8, Benzyl 2-methylthiocarbamoyl-2-(2-pyridyl)acetate] | 12.3 |  | 
CCOC(=O)C(C(=S)NCc1ccccn1)c1ccccn1 (stereo not drawn) [Example 24, Ethyl 2-(2-pyridyl)methylthiocarbamoyl-2(2-pyridyl)acetate] | 6.4 |  | 
CCNC(=S)C(C(=O)OCC)c1ccccn1 (stereo not drawn) [Example 2, Ethyl 2-ethylthiocarbamoyl-2-(2-pyridyl)acetate] | 4 | 6.8 | 
CC(C)=CCC/C(C)=C/COC(=O)C(C(N)=S)c1ccccn1 (stereo not drawn) [Example 17, geranyl 2-thiocarbamoyl-2-(2-pyridyl)acetate] | 5.3 | 2.8 | LD50 [3]: > 2000 mg/kg; ED50 [4]: 1 mg/kg; ED50 [6]: 4.2 mg/kg; ED50 [7]: 1 mg/kg; LD50 [8]: > 2860 mg/kg
CNC(=S)C(C(=O)OCC=C(C)C)c1ccccn1 (stereo not drawn) [Example 9, Prenyl 2-methylthiocarbamoyl-2-(2-pyridyl)acetate] | 3.5 | 1.1 | 
CC(C)=CCC/C(C)=C/COC(=O)C(C(=S)Nc1ccccc1)c1ccccn1 (stereo not drawn) [Example 14, Geranyl 2-phenylthiocarbamoyl-2-(2-pyridyl)acetate] | 36 | 3.7 | 
C=CCNC(=S)C(C(=O)OCC=C(C)C)c1ccccn1 (stereo not drawn) [Example 10, Prenyl 2-allylthiocarbamoyl-2-(2-pyridyl)acetate] | 4.4 | 7.7 | 
CC(C)=CCOC(=O)C(C(N)=S)c1ccccn1 (stereo not drawn) [Example 18, Prenyl 2-thiocarbamoyl-2-(2-pyridyl)acetate] | 7.8 | 4.5 | 
